Measured values taken from patent publication US20060134063A1, “Agents for proliferating pancreatic beta-cells of the islets of langerhans, agents for suppressing apoptosis of said cells, and screening of candidate compounds for these agents” (priority 2000, published 2006).

How the values were obtained:
[1] = system: 5' upstream region of rat HGF gene; assay: HGF promoter/luciferase reporter assay in RINm5F cells; format: cell-based; conditions: -1336 to +85 construct; 10 mM nicotinamide; 24 h
Protocol: The 5′ upstream region (−1336 to +85) of rat HGF gene was inserted into the multicloning site of pGL3-Basic (Promega) to prepare a luciferase reporter gene construct. Rat insulinoma RINm5F cells were seeded at 1×10^5 cells/well in a 24-well plate, incubated for 2 days, then, transfected with the test luciferase reporter construct using DMRIE-C™ (Life Technologies, Inc.) as described in Akiyama, T. et al. (2001) Proc. Natl. Acad. Sci. USA 98, 48-53. […] Then, the cells were harvested in 1 ml of ice-cold phosphate-buffered saline (PBS), washed twice with PBS, and cell extracts were prepared in extraction buffer (0.1 M potassium phosphate, pH 6.8, 1 mM DTT). The protein concentration was determined using a Coomassie reagent kit (Pierce) and bovine serum albumin as a standard. Luciferase activity was determined using a chemiluminescence substrate and a Pica Gene™ Luminescence Kit (Toyo Ink Mfg. Co, Ltd., Tokyo, Japan). β-Galactosidase activity was measured using an Aurora™ GAL-XE (ICN).
Various lengths of 5′ upstream regions HGF gene (Okajima, A., Miyazawa, K. and Kitamura, N. (1993) Eur. J. Biochem. 213, 113-119 (GenBank Ac. No. D14341)) were inserted into the multicloning site of pGL3-Basic (Promega) to prepare luciferase reporter gene constructs (FIG. 10). […] The protein concentration was determined using a Coomassie reagent kit (Pierce) and bovine serum albumin as a standard. […]

90% depancreatized rats = conditions: PARP inhibitor-treated rats; cited from earlier work
HGF gene = assay: RT-PCR of HGF gene expression in RINm5F cells; format: cell-based, rat; conditions: 10 mM nicotinamide; 24 h
Protocol: Rat insulinoma RINm5F cells were seeded at 1.5×10^5 cells/ml in a 25-cm^2 culture bottle. […] After a further 24-h incubation, total RNA was prepared using cesium trifluoroacetate as described in […]. et al. (1993) J. Biol. Chem. 268, 26052-26054 and Akiyama, T. et al. (2001) Proc. Natl. Acad. Sci. USA 98, 48-53. RT-PCR was performed using this RNA as a template and primers corresponding to nucleotides 1,556-1,575 and 2,208-2,227 of rat HGF mRNA (Okajima, A. et al. (1990) Eur. J. Biochem. 193, 375-381) as described in Sun, W. et al. (1999) Brain Res. 851, 46-53, to detect the expression of HGF gene. PCR was carried out by a two-step protocol as described in Sun, W. et al. (1999) Brain Res. 851, 46-53, with 33 cycles of the first step [denaturation (95° C., 40 s), primer annealing (60° C., 40 s), and primer elongation (72° C., 1 min)] followed by the 5 cycles of the second step [denaturation ([…], 40 s), primer annealing (60° C., 40 s), and primer elongation (72° C., 1 min)].

[2] = system: RINm5F cell lines, #1, #6, and #24, which stably express the Reg protein receptor; assay: TUNEL apoptosis assay in RINm5F cell lines #1, #6, #24 expressing Reg protein receptor; format: cell-based, rat; conditions: 1,000 nM Reg protein; 20 ng/ml IL-6, 100 nM dexamethasone, 10 mM nicotinamide; 24 h
Protocol: Rat insulinoma RINm5F cell lines, #1, #6, and #24, which stably express Reg protein receptor (Kobayashi, S. et al. (2000) J. Biol. Chem. 275, 10723-10726) were similarly cultured as in Example 4 and 1,000 nM Reg protein and HGF at varied concentrations, 0, 2.5, and 25 ng/ml were added thereto. Twenty-four hours after the addition of Reg protein/HGF, apoptosis was measured by TUNEL method using an Apoptosis Screening kit (Wako Pure Chemical Industries Ltd., Osaka, Japan) as described in Kobayashi, S. et al. (2000) J. Biol. Chem. 275, 10723-10726.

NC(=O)c1cccnc1 [nicotinamide]
transcriptional activity of HGF gene (luciferase), nicotinamide added to IL-6/dexamethasone [1]: further enhanced this transcriptional induction
development of diabetes after 90% pancreatectomy (90% depancreatized rats): preventing the development of diabetes
HGF gene expression (RT-PCR), PARP inhibitor added to IL-6/dexamethasone (HGF gene): further enhanced HGF gene expression
apoptosis induced by Reg protein (TUNEL) [2]: did not
